What was measured:
Assay type in all cases: toxicity, cell-based
HEK-293T = experiment: Incucyte cell viability with HEK293T; details: human, 10 µM, compound concentration 10 uM
U2OS = experiment: Incucyte cell viability with U2OS; details: human, 10 µM, compound concentration 10 uM
Fibroblast = experiment: Incucyte cell viability with human fibroblast; details: 10 µM, compound concentration 10 uM
[1] = 0 h, replicate number 1, timepoint 0 hours
[2] = 0 h, replicate number 2, timepoint 0 hours
[3] = 6 h, replicate number 1, timepoint 6 hours
[4] = 6 h, replicate number 2, timepoint 6 hours
[5] = 12 h, replicate number 1, timepoint 12 hours
[6] = 18 h, replicate number 1, timepoint 18 hours
[7] = 24 h, replicate number 1, timepoint 24 hours
[8] = 12 h, replicate number 2, timepoint 12 hours
[9] = 24 h, replicate number 2, timepoint 24 hours
[10] = 18 h, replicate number 2, timepoint 18 hours
Also: filed as whole numbers so only -1 and 0 and 1 occur.

`CCCc1c(OCCCOc2ccc(OCC(=O)O)cc2)ccc(C(C)=O)c1O` was tested, and the “Growth Rate” value (HEK-293T; [1]) was 1, the “Growth Rate” value (HEK-293T; [2]) was 0 and the “Growth Rate” value (HEK-293T; [3]) was 1. The “Growth Rate” value (HEK-293T; [4]) was 0, the “Growth Rate” value (HEK-293T; [5]) was 1 and the “Growth Rate” value (HEK-293T; [6]) was 1. For the same compound, the “Growth Rate” value (HEK-293T; [7]) was 1, the “Growth Rate” value (U2OS; [1]) was 0 and the “Growth Rate” value (U2OS; [2]) was 1. The “Growth Rate” value (U2OS; [4]) was 1, the “Growth Rate” value (U2OS; [5]) was 0 and the “Growth Rate” value (U2OS; [8]) was 1. For the same compound, the “Growth Rate” value (U2OS; [6]) was 1, the “Growth Rate” value (U2OS; [7]) was 0 and the “Growth Rate” value (U2OS; [9]) was 1. For the same compound, the “Growth Rate” value (Fibroblast; [1]) was 0, the “Growth Rate” value (Fibroblast; [2]) was 1 and the “Growth Rate” value (Fibroblast; [3]) was 1. For the same compound, the “Growth Rate” value (Fibroblast; [4]) was 0, the “Growth Rate” value (Fibroblast; [5]) was 1 and the “Growth Rate” value (Fibroblast; [6]) was 1. The “Growth Rate” value (Fibroblast; [7]) was 1.
`CC(C)NC(=O)c1ccc(C#Cc2ccncc2)cn1` was tested, and the “Growth Rate” value (HEK-293T; [1]) was 0, the “Growth Rate” value (HEK-293T; [3]) was 0 and the “Growth Rate” value (HEK-293T; [5]) was 0. For the same compound, the “Growth Rate” value (HEK-293T; [6]) was 0, the “Growth Rate” value (HEK-293T; [7]) was 0 and the “Growth Rate” value (U2OS; [1]) was 0. The “Growth Rate” value (U2OS; [5]) was 1, the “Growth Rate” value (U2OS; [6]) was 1 and the “Growth Rate” value (U2OS; [7]) was 0. The “Growth Rate” value (U2OS; [9]) was 1, the “Growth Rate” value (Fibroblast; [1]) was 0 and the “Growth Rate” value (Fibroblast; [2]) was 1. For the same compound, the “Growth Rate” value (Fibroblast; [3]) was 1, the “Growth Rate” value (Fibroblast; [4]) was 0 and the “Growth Rate” value (Fibroblast; [5]) was 0. For the same compound, the “Growth Rate” value (Fibroblast; [8]) was 1, the “Growth Rate” value (Fibroblast; [6]) was 1 and the “Growth Rate” value (Fibroblast; [7]) was 1.
With `COc1ccnc(N2CCC3(CCCN(Cc4c[nH]c5ccccc45)C3=O)CC2)n1` the “Growth Rate” value (HEK-293T; [1]) was 0, the “Growth Rate” value (HEK-293T; [3]) was 1 and the “Growth Rate” value (HEK-293T; [5]) was 1. For the same compound, the “Growth Rate” value (HEK-293T; [8]) was 0, the “Growth Rate” value (HEK-293T; [6]) was 1 and the “Growth Rate” value (HEK-293T; [10]) was 0. For the same compound, the “Growth Rate” value (HEK-293T; [7]) was 1, the “Growth Rate” value (HEK-293T; [9]) was 0 and the “Growth Rate” value (U2OS; [1]) was 1. For the same compound, the “Growth Rate” value (U2OS; [4]) was 0, the “Growth Rate” value (U2OS; [5]) was 1 and the “Growth Rate” value (U2OS; [8]) was 0. The “Growth Rate” value (U2OS; [6]) was 1, the “Growth Rate” value (U2OS; [7]) was 0 and the “Growth Rate” value (Fibroblast; [1]) was 0. The “Growth Rate” value (Fibroblast; [3]) was 0, the “Growth Rate” value (Fibroblast; [5]) was 0 and the “Growth Rate” value (Fibroblast; [6]) was 0. The “Growth Rate” value (Fibroblast; [7]) was 0.
For `CC(C)c1onc(-c2c(Cl)cccc2Cl)c1COc1ccc(/C=C/c2cccc(C(=O)O)c2)c(Cl)c1`, the “Growth Rate” value (HEK-293T; [1]) was 0, the “Growth Rate” value (HEK-293T; [3]) was 1 and the “Growth Rate” value (HEK-293T; [5]) was 0. For the same compound, the “Growth Rate” value (HEK-293T; [8]) was 1, the “Growth Rate” value (HEK-293T; [6]) was 0 and the “Growth Rate” value (HEK-293T; [7]) was 0. The “Growth Rate” value (U2OS; [1]) was 0, the “Growth Rate” value (U2OS; [5]) was 1 and the “Growth Rate” value (U2OS; [6]) was 1. For the same compound, the “Growth Rate” value (U2OS; [7]) was 1, the “Growth Rate” value (Fibroblast; [1]) was 0 and the “Growth Rate” value (Fibroblast; [2]) was 1. For the same compound, the “Growth Rate” value (Fibroblast; [3]) was 1, the “Growth Rate” value (Fibroblast; [5]) was 1 and the “Growth Rate” value (Fibroblast; [6]) was 0. The “Growth Rate” value (Fibroblast; [10]) was 1, the “Growth Rate” value (Fibroblast; [7]) was 0 and the “Growth Rate” value (Fibroblast; [9]) was 1.
With `COc1cc2c(CCNC(C)=O)c[nH]c2cc1Cl` the “Growth Rate” value (HEK-293T; [1]) was 0, the “Growth Rate” value (HEK-293T; [3]) was 1 and the “Growth Rate” value (HEK-293T; [4]) was 0. The “Growth Rate” value (HEK-293T; [5]) was 1, the “Growth Rate” value (HEK-293T; [8]) was 0 and the “Growth Rate” value (HEK-293T; [6]) was 1. For the same compound, the “Growth Rate” value (HEK-293T; [7]) was 1, the “Growth Rate” value (U2OS; [1]) was 0 and the “Growth Rate” value (U2OS; [4]) was 1. The “Growth Rate” value (U2OS; [5]) was 1, the “Growth Rate” value (U2OS; [6]) was 0 and the “Growth Rate” value (U2OS; [10]) was 1. The “Growth Rate” value (U2OS; [7]) was 1, the “Growth Rate” value (Fibroblast; [1]) was 0 and the “Growth Rate” value (Fibroblast; [3]) was 1. The “Growth Rate” value (Fibroblast; [5]) was 1, the “Growth Rate” value (Fibroblast; [6]) was 1 and the “Growth Rate” value (Fibroblast; [7]) was 1.
For `Cl.O=C(O)Cc1cccc(OCCCN(Cc2cccc(C(F)(F)F)c2Cl)CC(c2ccccc2)c2ccccc2)c1`, the “Growth Rate” value (HEK-293T; [1]) was 0, the “Growth Rate” value (HEK-293T; [3]) was 1 and the “Growth Rate” value (HEK-293T; [5]) was 1. For the same compound, the “Growth Rate” value (HEK-293T; [8]) was 0, the “Growth Rate” value (HEK-293T; [6]) was 0 and the “Growth Rate” value (HEK-293T; [7]) was 0. The “Growth Rate” value (U2OS; [1]) was 0, the “Growth Rate” value (U2OS; [4]) was 0 and the “Growth Rate” value (U2OS; [5]) was 0. For the same compound, the “Growth Rate” value (U2OS; [6]) was 0, the “Growth Rate” value (U2OS; [10]) was 1 and the “Growth Rate” value (U2OS; [7]) was 1. For the same compound, the “Growth Rate” value (Fibroblast; [1]) was 0, the “Growth Rate” value (Fibroblast; [3]) was 1 and the “Growth Rate” value (Fibroblast; [4]) was 0. The “Growth Rate” value (Fibroblast; [5]) was 1, the “Growth Rate” value (Fibroblast; [8]) was 0 and the “Growth Rate” value (Fibroblast; [6]) was 1. The “Growth Rate” value (Fibroblast; [10]) was 0 and the “Growth Rate” value (Fibroblast; [7]) was 0.
For `CCCCN(CCCC)C(=O)CN1C[C@H](c2cc(OC)c3c(c2)OCO3)[C@@H](C(=O)O)[C@@H]1CC(C)(C)CCC.Cc1ccc(S(=O)(=O)O)cc1`, the “Growth Rate” value (HEK-293T; [1]) was 0, the “Growth Rate” value (HEK-293T; [3]) was 1 and the “Growth Rate” value (HEK-293T; [4]) was 0. For the same compound, the “Growth Rate” value (HEK-293T; [5]) was 1, the “Growth Rate” value (HEK-293T; [8]) was 0 and the “Growth Rate” value (HEK-293T; [6]) was 1. For the same compound, the “Growth Rate” value (HEK-293T; [10]) was 0, the “Growth Rate” value (HEK-293T; [7]) was 1 and the “Growth Rate” value (HEK-293T; [9]) was 0. For the same compound, the “Growth Rate” value (U2OS; [1]) was 0, the “Growth Rate” value (U2OS; [3]) was 0 and the “Growth Rate” value (U2OS; [5]) was 1. The “Growth Rate” value (U2OS; [6]) was 0, the “Growth Rate” value (U2OS; [10]) was 1 and the “Growth Rate” value (U2OS; [7]) was 1. For the same compound, the “Growth Rate” value (Fibroblast; [1]) was 0, the “Growth Rate” value (Fibroblast; [3]) was 1 and the “Growth Rate” value (Fibroblast; [5]) was 1. For the same compound, the “Growth Rate” value (Fibroblast; [6]) was 1, the “Growth Rate” value (Fibroblast; [7]) was 0 and the “Growth Rate” value (Fibroblast; [9]) was 1.
For `C[C@@H](c1cccc(C#N)c1)n1cc(Cl)cc(C(N)=O)c1=N.Cl`, the “Growth Rate” value (HEK-293T; [1]) was 0, the “Growth Rate” value (HEK-293T; [3]) was 1 and the “Growth Rate” value (HEK-293T; [5]) was 0. The “Growth Rate” value (HEK-293T; [8]) was 1, the “Growth Rate” value (HEK-293T; [6]) was 1 and the “Growth Rate” value (HEK-293T; [7]) was 1. The “Growth Rate” value (U2OS; [1]) was 0, the “Growth Rate” value (U2OS; [5]) was 1 and the “Growth Rate” value (U2OS; [6]) was 1. For the same compound, the “Growth Rate” value (U2OS; [7]) was 1, the “Growth Rate” value (Fibroblast; [1]) was 0 and the “Growth Rate” value (Fibroblast; [2]) was 1. The “Growth Rate” value (Fibroblast; [3]) was 1, the “Growth Rate” value (Fibroblast; [4]) was 0 and the “Growth Rate” value (Fibroblast; [8]) was 0. The “Growth Rate” value (Fibroblast; [6]) was 1, the “Growth Rate” value (Fibroblast; [7]) was 1 and the “Growth Rate” value (Fibroblast; [9]) was 0.
For `CC1(C)C(=O)C(C)(C)c2cc(C(=O)Nc3ccc(C(=O)O)cc3)ccc21`, the “Growth Rate” value (HEK-293T; [1]) was 0, the “Growth Rate” value (HEK-293T; [4]) was 1 and the “Growth Rate” value (HEK-293T; [5]) was 1. For the same compound, the “Growth Rate” value (HEK-293T; [6]) was 1, the “Growth Rate” value (HEK-293T; [7]) was 1 and the “Growth Rate” value (U2OS; [1]) was 0. For the same compound, the “Growth Rate” value (U2OS; [4]) was 1, the “Growth Rate” value (U2OS; [5]) was 0 and the “Growth Rate” value (U2OS; [8]) was 1. The “Growth Rate” value (U2OS; [6]) was 1, the “Growth Rate” value (U2OS; [7]) was 1 and the “Growth Rate” value (Fibroblast; [1]) was 0. The “Growth Rate” value (Fibroblast; [2]) was 1, the “Growth Rate” value (Fibroblast; [3]) was 0 and the “Growth Rate” value (Fibroblast; [5]) was 0. For the same compound, the “Growth Rate” value (Fibroblast; [6]) was 0, the “Growth Rate” value (Fibroblast; [10]) was 1 and the “Growth Rate” value (Fibroblast; [7]) was 0.
In the case of `CCCCCNC(=O)NS(=O)(=O)c1cc([N+](=O)[O-])ccc1NC1CCCCC1`, the “Growth Rate” value (HEK-293T; [1]) is reported as 1, the “Growth Rate” value (HEK-293T; [2]) is reported as 0 and the “Growth Rate” value (HEK-293T; [3]) is reported as 0. For the same compound, the “Growth Rate” value (HEK-293T; [4]) was 1, the “Growth Rate” value (HEK-293T; [5]) was 0 and the “Growth Rate” value (HEK-293T; [8]) was 1. For the same compound, the “Growth Rate” value (HEK-293T; [6]) was 0, the “Growth Rate” value (HEK-293T; [7]) was 1 and the “Growth Rate” value (HEK-293T; [9]) was 0. The “Growth Rate” value (U2OS; [1]) was 0, the “Growth Rate” value (U2OS; [4]) was 1 and the “Growth Rate” value (U2OS; [5]) was 1. The “Growth Rate” value (U2OS; [6]) was 0, the “Growth Rate” value (U2OS; [10]) was 1 and the “Growth Rate” value (U2OS; [7]) was 1. For the same compound, the “Growth Rate” value (Fibroblast; [1]) was 0, the “Growth Rate” value (Fibroblast; [2]) was 1 and the “Growth Rate” value (Fibroblast; [4]) was 0. For the same compound, the “Growth Rate” value (Fibroblast; [5]) was 1, the “Growth Rate” value (Fibroblast; [8]) was 0 and the “Growth Rate” value (Fibroblast; [6]) was 1. For the same compound, the “Growth Rate” value (Fibroblast; [7]) was 1.

Reference: ChEMBL document CHEMBL4689842, “EUbOPEN Chemogenomics Library wave 1” (2021)
